This note sets out measurements from patent US6436921B1, “Carbapenem derivatives and a preparation method thereof” (Korea Institute of Science and Technology, priority 1997, dated 2002).

Where only a bound is given, the exact number is not on record here.

Data set [1] is described as follows: Bioavailability test, subcutaneous injection to mice. It is filed as in vivo.
Data set [2] has as its target DHP-I (renal dehydropeptidase-I) (Homo sapiens, UniProt P16444). Briefly: in vitro.
Another data set addresses renal enzyme (DHP-I) (Homo sapiens, UniProt P16444). As to conditions: FIG. 1.
The test system of data set [3] is Streptococcus pyrogenes A 77. Kind of data set: PD50 test using mice. It is filed as in vivo. The arrangement: PD50: unit not given beside the values. From the text: (§1) This means that ⅓ of the amount of the compound 10 has the same effect as meropenem.
(§2) Streptococcus pyrogenes A 77 and Escherichia coli 078 were selected as gram-positive and gram-negative strains, respectively.

In another data set the test system is Escherichia coli 078. Kind of data set: PD50 test using mice. The format is in vivo. The arrangement: PD50: unit not given beside the values.
Excerpt: as §1, §2

As usually defined, the half-life is the time needed for the level to fall by half in the phase considered. In general, AUC refers to the area under the concentration-time curve, a measure of exposure. The Cmax is the maximum level reached in the sampled fluid or tissue. As a reminder, the Tmax is the time from dosing to the highest level.

renal enzyme (DHP-I), sequence (P16444 17-385): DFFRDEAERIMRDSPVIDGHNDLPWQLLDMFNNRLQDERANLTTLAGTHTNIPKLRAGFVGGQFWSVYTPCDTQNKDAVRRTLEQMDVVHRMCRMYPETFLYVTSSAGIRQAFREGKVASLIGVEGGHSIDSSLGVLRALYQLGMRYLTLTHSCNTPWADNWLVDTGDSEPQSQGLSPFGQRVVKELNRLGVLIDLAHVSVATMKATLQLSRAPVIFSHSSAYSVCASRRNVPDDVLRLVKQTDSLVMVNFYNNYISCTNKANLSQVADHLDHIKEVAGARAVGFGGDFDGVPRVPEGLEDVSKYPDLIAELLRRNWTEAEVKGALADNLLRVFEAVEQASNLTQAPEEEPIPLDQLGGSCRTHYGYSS
DHP-I (renal dehydropeptidase-I), sequence (P16444 17-385): as above

Regarding `C[C@@H](O)[C@H]1C(=O)N2C(C(=O)O)=C(S[C@@H]3CN[C@H](C(=O)NCCS(N)(=O)=O)C3)[C@H](C)[C@H]12` [Compound 10], the half-life in data set [1] (mouse, in vivo, sc) is 19.2 ± 2.4 min; in data set [2], greater than 300 min. Moreover, the AUC in data set [1] (mouse, in vivo, sc, AUC 0-3 hr) is 11900 ± 1130 ng·h/mL. Also, in data set [1] (mouse, in vivo, sc, read-out: Cmax), the Cmax was determined as 16000 ± 960 ng/mL. Moreover, the Tmax in data set [1] (mouse, in vivo, sc, read-out: Tmax) is no more than 19.8 min. For the same molecule, the “times as efficient as meropenem (bioavailability, Table 4)” value in data set [1] (versus meropenem) was “ca. 3 times”. Moreover, on renal enzyme (DHP-I), the “stability against DHP-I (in words)” value was “a little more stable than meropenem against DHP-I and markedly more stable than imipenem”. Also, the values for the PD50 (in data set [3] (Streptococcus pyrogenes A 77); in the data set with Escherichia coli 078 (Escherichia coli 078)) were 2.31 and 0.47, respectively. The “times more efficient than meropenem (PD50 test)” value is on record as 3 times in data set [3] (gram-positive strain, versus meropenem) and 3 times in the data set on Escherichia coli 078 (gram-negative strain, versus meropenem).
